Laboratory results reported in PMC12391391, “The balance between B55α and Greatwall expression levels predicts sensitivity to Greatwall inhibition in cancer cells” (Nature Communications, 2025).
Where two headings read alike, the source gives them in different places.

Experiments:
[1] = biological target: T1, Greatwall kinase (GWL, MASTL) (Homo sapiens, UniProt Q96GX5, K72M); assay: HTRF kinase assay with purified full-length GWL (K72M) and ENSA; assay type: biochemical
T1 construct: full-length
T1 sequence (Q96GX5 1-879 K72M): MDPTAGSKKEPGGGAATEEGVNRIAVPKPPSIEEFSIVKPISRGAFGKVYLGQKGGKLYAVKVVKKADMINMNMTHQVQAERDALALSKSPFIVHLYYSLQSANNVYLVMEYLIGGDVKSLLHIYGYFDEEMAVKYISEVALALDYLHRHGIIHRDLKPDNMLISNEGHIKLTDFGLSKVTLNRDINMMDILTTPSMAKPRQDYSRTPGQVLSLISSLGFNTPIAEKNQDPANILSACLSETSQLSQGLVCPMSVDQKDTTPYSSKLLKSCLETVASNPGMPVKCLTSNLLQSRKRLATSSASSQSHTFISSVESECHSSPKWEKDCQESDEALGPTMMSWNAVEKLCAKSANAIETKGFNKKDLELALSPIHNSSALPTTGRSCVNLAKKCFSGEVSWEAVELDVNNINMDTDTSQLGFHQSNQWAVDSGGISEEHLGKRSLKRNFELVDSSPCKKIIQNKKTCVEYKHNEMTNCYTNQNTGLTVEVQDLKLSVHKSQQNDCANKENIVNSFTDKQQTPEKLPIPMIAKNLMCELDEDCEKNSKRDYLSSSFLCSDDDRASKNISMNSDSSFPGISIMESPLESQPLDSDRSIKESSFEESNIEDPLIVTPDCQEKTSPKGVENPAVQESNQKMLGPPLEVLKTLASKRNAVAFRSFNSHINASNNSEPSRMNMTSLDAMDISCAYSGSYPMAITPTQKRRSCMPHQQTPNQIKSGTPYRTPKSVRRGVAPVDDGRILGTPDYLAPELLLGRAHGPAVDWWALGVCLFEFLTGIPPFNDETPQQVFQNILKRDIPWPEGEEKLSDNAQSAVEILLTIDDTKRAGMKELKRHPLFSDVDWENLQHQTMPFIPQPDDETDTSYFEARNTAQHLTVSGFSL

in vitro [2] = assay: in vitro; parameters: intrinsic clearance in mouse microsomes; settings: liver microsomes; mouse liver microsomes
Text: (§1) We selected compound 1 as the lead exemplar of cluster 3 and leveraged it as a foundation for subsequent drug development (Fig. 1a). Structure-activity relationship studies and pharmacokinetic profiling produced several derivative molecules, of which compound 21 provided the best combination of outstanding inhibitory potential, low clearance in mouse microsomes and acceptable solubility (Fig. 1a–c and Supplementary Tables 1–4). […] This assessment was supported by structural modelling of the interaction between compound 21 and the active site of GWL (Fig. 1d). In further support of its GWL-targeting properties, compound 21 diminished the phosphorylation of the canonical GWL substrate ENSA(S67) in Xenopus laevis cytostatic factor (CSF) egg extract (Supplementary Fig. 2). Having satisfied the criteria of prospective GWL inhibitor, the racemic compound 21 was registered as UOS-00054604 and, for the remainder of the manuscript, is referred to as C-604.

in vitro [3] = assay: in vitro; parameters: intrinsic clearance in human microsomes; settings: liver microsomes; human liver microsomes; read-out: Cl (human)
Text: as §1

CDK1/cyclinB = CDK1/cyclinB (Homo sapiens, UniProt P06493); assay: biochemical; parameters: CDK1/cyclin B and off-target kinase inhibition assay
CDK1/cyclinB, sequence (P06493 whole entry): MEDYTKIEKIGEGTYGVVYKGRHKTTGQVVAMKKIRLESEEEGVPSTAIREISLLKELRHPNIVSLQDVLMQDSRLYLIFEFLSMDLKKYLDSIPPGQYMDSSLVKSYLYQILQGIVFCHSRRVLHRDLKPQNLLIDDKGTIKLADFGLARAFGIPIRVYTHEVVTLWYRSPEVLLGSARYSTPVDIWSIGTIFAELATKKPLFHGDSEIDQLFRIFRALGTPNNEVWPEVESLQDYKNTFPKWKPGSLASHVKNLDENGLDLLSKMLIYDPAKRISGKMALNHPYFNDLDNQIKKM
CDK1/cyclinB, sequence (P14635 whole entry partner): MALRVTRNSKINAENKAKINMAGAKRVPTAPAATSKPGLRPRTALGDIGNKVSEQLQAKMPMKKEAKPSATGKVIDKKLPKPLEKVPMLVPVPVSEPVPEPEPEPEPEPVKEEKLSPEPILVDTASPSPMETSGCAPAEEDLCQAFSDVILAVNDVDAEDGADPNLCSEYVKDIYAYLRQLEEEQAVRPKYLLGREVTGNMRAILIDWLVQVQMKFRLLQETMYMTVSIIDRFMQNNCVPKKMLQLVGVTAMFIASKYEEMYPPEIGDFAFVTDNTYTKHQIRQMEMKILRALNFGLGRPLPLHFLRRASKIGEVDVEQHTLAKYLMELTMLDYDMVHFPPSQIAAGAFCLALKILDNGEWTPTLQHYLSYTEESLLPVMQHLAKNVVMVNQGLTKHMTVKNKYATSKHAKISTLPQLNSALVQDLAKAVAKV

PRKD2 = biological target: T2, PRKD2 (Homo sapiens, UniProt Q9BZL6); assay: biochemical; parameters: LanthaScreen kinase activity assay (Thermo Fisher), dose-dependent inhibition by C-604; settings: read-out: IC50 (C-604)
T2 sequence (Q9BZL6 1-878): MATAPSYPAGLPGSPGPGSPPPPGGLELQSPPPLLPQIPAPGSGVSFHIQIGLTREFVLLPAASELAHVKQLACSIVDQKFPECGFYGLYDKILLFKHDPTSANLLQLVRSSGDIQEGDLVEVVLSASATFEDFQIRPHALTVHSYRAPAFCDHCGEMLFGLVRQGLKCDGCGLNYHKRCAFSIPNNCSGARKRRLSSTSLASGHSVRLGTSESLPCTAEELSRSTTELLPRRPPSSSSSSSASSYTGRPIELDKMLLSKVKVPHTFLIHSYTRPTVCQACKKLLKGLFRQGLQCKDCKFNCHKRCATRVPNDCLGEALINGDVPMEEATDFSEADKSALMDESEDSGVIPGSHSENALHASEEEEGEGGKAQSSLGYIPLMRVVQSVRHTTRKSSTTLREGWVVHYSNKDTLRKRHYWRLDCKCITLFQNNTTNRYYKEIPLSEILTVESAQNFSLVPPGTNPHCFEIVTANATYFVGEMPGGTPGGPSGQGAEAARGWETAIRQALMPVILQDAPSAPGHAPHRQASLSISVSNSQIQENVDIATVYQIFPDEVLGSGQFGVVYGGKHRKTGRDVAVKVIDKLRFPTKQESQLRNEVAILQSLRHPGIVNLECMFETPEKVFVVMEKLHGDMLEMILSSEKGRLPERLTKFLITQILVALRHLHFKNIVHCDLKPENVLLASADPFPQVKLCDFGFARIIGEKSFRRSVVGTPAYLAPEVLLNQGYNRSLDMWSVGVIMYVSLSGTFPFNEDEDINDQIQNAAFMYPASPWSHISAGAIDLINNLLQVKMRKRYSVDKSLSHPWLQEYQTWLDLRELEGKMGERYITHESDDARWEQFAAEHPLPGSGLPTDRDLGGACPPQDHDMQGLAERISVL
Description: (§2) To identify potential C-604 off-targets, we utilised a commercially available off-target screening service (Thermo Fisher Scientific) to assess the impact of C-604 on the in vitro activity of 100 human kinases (Supplementary Fig. 8a). Out of 100 tested targets, C-604 (1 µM) inhibited GWL (inhibition 95%) and an additional 10 kinases (inhibition ≥ 80%). […] The in vitro off-target effects of compound C-604 were determined by assessing its inhibitory potential in a panel of 100 human kinases using the LanthaScreen Kinase Activity Assay (Thermo Fisher Scientific).

GSK3B = GSK3B (Homo sapiens, UniProt P49841); assay: biochemical; parameters: LanthaScreen kinase activity assay (Thermo Fisher), dose-dependent inhibition by C-604; settings: read-out: IC50 (C-604)
GSK3B, sequence (P49841 whole entry): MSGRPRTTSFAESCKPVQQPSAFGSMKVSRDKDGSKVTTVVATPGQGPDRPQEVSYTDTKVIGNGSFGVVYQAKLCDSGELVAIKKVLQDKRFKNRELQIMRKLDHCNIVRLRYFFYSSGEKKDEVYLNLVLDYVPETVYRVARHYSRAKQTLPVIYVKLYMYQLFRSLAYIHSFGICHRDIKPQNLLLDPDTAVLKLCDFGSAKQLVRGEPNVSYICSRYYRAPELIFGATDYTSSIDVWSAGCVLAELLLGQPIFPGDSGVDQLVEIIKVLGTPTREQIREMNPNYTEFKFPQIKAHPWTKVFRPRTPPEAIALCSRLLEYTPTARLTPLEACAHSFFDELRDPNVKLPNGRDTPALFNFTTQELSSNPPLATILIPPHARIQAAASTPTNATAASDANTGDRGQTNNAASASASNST
Description: as §2

MAP3K9 = MAP3K9 (Homo sapiens, UniProt P80192); assay: biochemical; parameters: LanthaScreen kinase activity assay (Thermo Fisher), dose-dependent inhibition by C-604; settings: read-out: IC50 (C-604)
MAP3K9, sequence (P80192 whole entry): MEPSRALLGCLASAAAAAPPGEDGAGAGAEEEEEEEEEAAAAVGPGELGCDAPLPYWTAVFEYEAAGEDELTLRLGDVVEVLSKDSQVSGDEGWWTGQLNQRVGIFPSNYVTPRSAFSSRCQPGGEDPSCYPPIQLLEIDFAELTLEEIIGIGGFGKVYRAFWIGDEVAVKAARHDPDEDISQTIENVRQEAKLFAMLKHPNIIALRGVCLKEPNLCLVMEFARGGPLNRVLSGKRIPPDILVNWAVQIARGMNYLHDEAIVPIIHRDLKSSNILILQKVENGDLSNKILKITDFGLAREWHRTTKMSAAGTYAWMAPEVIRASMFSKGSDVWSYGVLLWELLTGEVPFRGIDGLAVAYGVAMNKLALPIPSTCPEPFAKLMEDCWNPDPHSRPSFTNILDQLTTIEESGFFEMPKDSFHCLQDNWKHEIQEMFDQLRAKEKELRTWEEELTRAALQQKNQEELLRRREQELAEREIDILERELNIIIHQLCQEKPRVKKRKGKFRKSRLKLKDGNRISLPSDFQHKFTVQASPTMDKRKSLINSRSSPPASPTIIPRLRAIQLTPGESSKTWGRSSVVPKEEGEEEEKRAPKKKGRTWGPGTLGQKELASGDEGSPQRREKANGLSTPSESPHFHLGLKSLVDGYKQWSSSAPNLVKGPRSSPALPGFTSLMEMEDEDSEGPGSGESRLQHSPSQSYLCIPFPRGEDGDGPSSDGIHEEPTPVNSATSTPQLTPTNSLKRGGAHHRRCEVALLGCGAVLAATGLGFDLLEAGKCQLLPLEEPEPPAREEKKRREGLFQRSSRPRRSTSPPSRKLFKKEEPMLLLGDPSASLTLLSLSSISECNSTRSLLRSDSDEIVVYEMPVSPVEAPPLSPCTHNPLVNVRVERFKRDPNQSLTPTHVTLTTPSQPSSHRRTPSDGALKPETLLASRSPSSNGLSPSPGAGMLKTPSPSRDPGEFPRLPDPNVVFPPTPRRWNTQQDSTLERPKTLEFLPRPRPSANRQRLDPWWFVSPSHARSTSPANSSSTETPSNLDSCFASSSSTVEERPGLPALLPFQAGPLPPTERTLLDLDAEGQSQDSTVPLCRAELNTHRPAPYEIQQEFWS
Description: as §2

IC50 [1]: 9 ± 7.7 nM
microsomal CLint (in vitro [2]): 24 µL/min/mg
microsomal CLint (in vitro [3]): 13 µL/min/mg
IC50 (CDK1/cyclinB): > 30000 nM
IC50 (PRKD2): 373 nM
IC50 (GSK3B): 283 nM
IC50 (MAP3K9): 29.3 nM
Compound: CNC(=O)c1c[nH]c2ncc(-c3ccc(OCCN4CCC(c5ccccc5)C4)cc3)nc12 (racemic) [compound 21, C-604]
